What was measured:
[1] = molecular target: T1, Human recombinant C-ter-His-FLAG-HDAC1 (Homo sapiens, UniProt Q13547); assay: HDAC-Glo I/II bioluminogenic enzyme assay, HDAC1; format: biochemical; settings: mean ± SD of three independent experiments; read-out: HDAC Inhibition, IC50 ± SD, HDAC1
T1 construct: His (C); FLAG (C); purchased BPS Bioscience 50051

[2] = molecular target: T2, Human recombinant C-terminal His-tag-HDAC8 (Homo sapiens, UniProt Q9BY41); assay: HDAC-Glo I/II bioluminogenic enzyme assay, HDAC8; format: biochemical; settings: mean ± SD of three independent experiments; read-out: HDAC Inhibition, IC50 ± SD, HDAC8
T2 construct: His (C); purchased BPS Bioscience 50008
T2 sequence (Q9BY41 1-377): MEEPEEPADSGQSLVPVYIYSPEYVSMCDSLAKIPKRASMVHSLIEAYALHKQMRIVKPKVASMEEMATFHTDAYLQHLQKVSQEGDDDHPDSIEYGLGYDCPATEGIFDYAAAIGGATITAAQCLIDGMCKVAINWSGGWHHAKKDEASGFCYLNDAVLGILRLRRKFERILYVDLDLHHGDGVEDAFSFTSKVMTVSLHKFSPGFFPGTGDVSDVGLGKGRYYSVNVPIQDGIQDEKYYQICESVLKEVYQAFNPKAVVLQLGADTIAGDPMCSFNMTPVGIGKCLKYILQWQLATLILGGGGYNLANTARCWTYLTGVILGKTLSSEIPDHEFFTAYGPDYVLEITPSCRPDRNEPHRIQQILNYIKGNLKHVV

MCF-7 cells = assay: Cell viability (MTT) assay, MCF-7; format: cell-based; settings: Homo sapiens, MCF7, 48 h, read-out: Cytotoxic activity IC50 ± SD, MCF-7
Procedure: Human breast adenocarcinoma cells (MCF-7, ATCC® HTB-22™) and triple-negative breast cancer cells (MDA-MB-231, ATCC® HTB-26™) were obtained from the American Type Culture Collection (Rockville, MD, USA). Cells were maintained as a monolayer culture in DMEM:Ham’s 12 (1:1) medium (Sigma-Aldrich, St. Louis, MO, USA) supplemented with penicillin (192 U/mL), streptomycin (200 µg/mL), and 10% of heat-inactivated fetal calf serum (FCS). Cells were grown at 37 °C in 5% CO2 and humidified air atmosphere, by twice weekly subculture.
Cytotoxic activity of synthesized 1-benzhydryl-piperazine-based HDAC inhibitors was assessed on MDA-MB-231 and MCF-7 cells using an MTT assay. MDA-MB-231 (5 × 10^3 cells/well) and MCF-7 (5 × 10^3 cells/well) were treated with synthesized compounds in six different concentrations (100, 50, 25, 12.5, 6.25, and 3.13 μM), and each concentration was added in five replicates. MTT solution (3-(4,5-dimethylthiazol-2-yl)-2,5-diphenyltetrazolium bromide) (Sigma-Aldrich, St. Louis, USA) was added to each well (20 µL) after 48 h. After 4 h of incubation, 100 μL of 10% SDS was added in each well and incubated at 37 °C. On the next day, the absorbance at 570 nm was recorded. The ratio of absorbance (570 nm) values between treated and control cells multiplied by 100 was used to calculate cell survival (%). The concentration of synthesized HDAC inhibitors that reduced cell viability by 50% was defined as the IC50 value, and was compared to the vehicle control.

MDA-MB-231 cells [3] = assay: Apoptosis assay, Annexin V-FITC/7-AAD flow cytometry; format: cell-based, human; settings: for early apoptotic cells: 72 h
Procedure: Examined breast cancer cells (MDA-MB-231) were stained with annexin V–fluorescein isothiocyanate/and 7AAD (BD Pharmingen, San Diego, CA, USA), and the samples were prepared following the specifications given by manufacturer. The population of apoptotic cells was analyzed by flow cytometry using a FACS Calibur cytometer and Cell Quest computer software (Becton Dickinson, Heidelberg, Germany).

MDA-MB-231 cells [4] = assay: Cell cycle analysis, propidium iodide flow cytometry; format: cell-based, human; settings: IC50 concentration; for percentage of cells in S phases: 48 h
Procedure: MDA-MB-231 cells were treated with tested compounds for specified time courses. After treatment, examined cells were washed in cold PBS and incubated for 30 min in 96% ethanol on ice, centrifuged, and incubated with 80 μL RNase A ([…]) and 50 μL propidium iodide (50 μg/mL) for 30 min at 37 °C. The cell cycle was analyzed by FACS Calibur E440 (Becton Dickinson) flow cytometer and Cell Quest software. Results are presented as a percentage of cell cycle phases.

MDA-MB-231 cells [5] = assay: Matrigel invasion assay; format: cell-based, human; settings: 24 h; 5 μM 8b, 10 μM 9b
Procedure: To determine MDA-MB-231 cell migration and invasion cell capacities, Corning® Costar® Transwell® cell culture inserts with 8.0 μm pore polycarbonate filters (Sigma Aldrich, CLS3464) and Corning™ BioCoat™ Matrigel™ Invasion Chamber with Corning Matrigel Matrix™ cell culture inserts (Thermo fisher scientific, Waltham, MA, USA) respectively were used. Briefly, 6 × 10^4 cells in 200 μL were seeded in the upper chamber and the bottom chamber was filled with 800 μL of medium. After 24 h under indicated treatments, the remaining cells in the upper chamber were gently removed with a cotton swab, moistened with medium, and the inserts were carefully washed twice with 37 °C warmed PBS. Then, attached cells at the bottom side of the membrane were fixed by immersing in ice cold methanol for 2 min and stained with 0.1% crystal violet for 15 min at room temperature. Stained cells were photographed and quantified using NIH ImageJ software.

T1 sequence (Q13547 whole entry): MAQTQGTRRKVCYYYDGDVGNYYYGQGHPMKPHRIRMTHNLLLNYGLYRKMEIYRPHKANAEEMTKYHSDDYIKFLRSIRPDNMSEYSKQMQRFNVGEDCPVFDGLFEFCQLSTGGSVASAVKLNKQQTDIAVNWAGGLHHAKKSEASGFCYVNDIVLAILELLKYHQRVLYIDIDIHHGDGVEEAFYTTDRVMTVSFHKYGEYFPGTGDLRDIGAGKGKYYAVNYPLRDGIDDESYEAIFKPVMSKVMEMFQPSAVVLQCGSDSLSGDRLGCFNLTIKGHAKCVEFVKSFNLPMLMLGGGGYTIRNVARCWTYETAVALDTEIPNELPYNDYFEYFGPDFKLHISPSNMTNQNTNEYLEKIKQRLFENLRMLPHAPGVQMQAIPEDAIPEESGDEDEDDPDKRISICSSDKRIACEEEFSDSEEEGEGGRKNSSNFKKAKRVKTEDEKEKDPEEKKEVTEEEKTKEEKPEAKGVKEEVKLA

Compound | IC50 [1] [nM] | IC50 [2] [nM] | IC50 (MCF-7 cells) [nM] | late apoptotic cell population (MDA-MB-231 cells [3]; 5 μM, control 1.13%) [%] | early apoptotic cell population (MDA-MB-231 cells [3]; 5 μM, control 1.27%) [%] | early apoptotic cells (MDA-MB-231 cells [3]; IC50 concentration) | percentage of cells in the G2/M phase (MDA-MB-231 cells [4]; 24 h) | percentage of cells in S phases (MDA-MB-231 cells [4]) | anti-invasive property (% compared to control) (MDA-MB-231 cells [5]) | programmed cell death (MDA-MB-231 cells [3]; IC50 concentration, 24 h) | percentage of cells in the S phase (MDA-MB-231 cells [4]; 24 h)
O=C(CCCCCCCN1CCN(C(c2ccccc2)c2ccccc2)CC1)NO [Compound 8b, 8-(4-(diphenylmethyl)-piperazin-1-yl)-N-hydroxyoctanamide] | 408 ± 22 | 245 ± 2 | 39100 ± 2700 | 0.45 | 4.13 | around 45% | slight increase | increased | 59% |  | 
O=C(CCCCCCN1CCN(C(c2ccccc2)c2ccccc2)CC1)NO [Compound 7b, 7-(4-(diphenylmethyl)-piperazin-1-yl)-N-hydroxyheptanamide] | 619 ± 23 | 345 ± 17 | > 100000 |  |  | around 45% | slight increase | increased |  | slight increase | 
O=C(NO)c1ccc(CN2CCN(C(c3ccccc3)c3ccccc3)CC2)cc1 [Compound 9b, 4-(4-(diphenylmethyl)-piperazin-1-ylmethyl)-N-hydroxy-benzamide] | 1470 ± 172 | 708 ± 45 | 99500 ± 700 |  |  | around 45% |  | increased | did not reduce |  | increased

From PMC9785542, “Discovery of 1-Benzhydryl-Piperazine-Based HDAC Inhibitors with Anti-Breast Cancer Activity: Synthesis, Molecular Modeling, In Vitro and In Vivo Biological Evaluation” (Pharmaceutics, 2022)
